Here are results for two compounds from patent US8329743B2, “Compositions and its use in treating obesity or inducing weight loss” (Sami Labs Limited, priority 2011, dated 2012).

In brackets after ≈: the same amount, converted by molar mass.

The test system of the test is 3T3-L1 mouse adipocyte cells. The experiment in a line: Adipogenesis inhibition, Oil Red-O staining of adipocytes. Format: cell-based. The following applies: Table 1, 3T3-L1 mouse adipocytes, OD 492 nm, read-out: Adipogenesis inhibitory activity (IC50). From the text: Adipogenesis, or the development of fat cells from preadipocytes, has been one of the most intensely studied models for obesity. A fat cell develops as internally produced lipid droplets coalesce into a single large mass. The in vitro adipogenesis inhibitory model can recapitulate most of the critical aspects of fat cell formation in vivo.
A common assay to measure adipocyte differentiation in cell culture is with the dye Oil Red-O, which is a lipid-soluble red dye. Since terminal differentiation of adipocytes is accompanied by the accumulation of great amounts of lipids in large cytoplasmic vesicles, a strong, bright, staining of the cytoplasm with this dye is a reliable indicator of adipocyte differentiation.
3T3-L1 mouse adipocyte cells are seeded at a density of 5000 cell/200 μl of adipocyte induction medium in a 96 well plate. After 48 hrs, sample is added. After 72 hrs, the medium is changed to adipocyte progression medium along with the sample. The medium is similarly changed after another 48 hours. The plates are washed gently after 48 hrs with 100 μl of PBS. […] The OD reading is taken at 492 nm in microplate reader.
The results are expressed as IC50 values using Graphpad prism software. The percentage of inhibition of adipogenesis is calculated as follows,
[formula] Where C—absorbance due to adipogenesis in untreated cells • T—absorbance due to adipogenesis in sample treated cells

Usually IC50 stands for the point on the concentration scale where inhibition reaches its midpoint. `C=C(C)[C@@H](CC=C(C)C)C[C@@]12C[C@@H](CC=C(C)C)C(C)(C)[C@@](CC=C(C)C)(C(=O)C(C(=O)c3ccc(O)c(O)c3)=C1O)C2=O` [Garcinol]: the IC50 came to 0.2 µg/mL (≈ 0.332 µM).

For `COc1cc(C=Cc2ccc(O)cc2)cc(OC)c1` [Pterostilbene, 3,5-dimethoxy-4′-hydroxystilbene], the 50% inhibitory concentration (IC50) came out at 13.3 µg/mL (≈ 52 µM).
